Reference: US8354414B2, “Substituted bicyclic pyrimidines” (Cephalon, Inc, priority 2006, dated 2013)
Like-named read-outs stand apart in the source and are kept apart here.

Experiments:
[1] = biological target: T1, His6-GSK-3β (Homo sapiens, UniProt P49841); test: Inhibition of His6-GSK-3β kinase activity (ELISA-based format, time-resolved fluorescence readout); assay type: biochemical; details: read-out: GSK3β IC50
T1 construct: made in house; host or cells: Sf21 insect cells (baculovirus)
Procedure, shortened: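 N-terminal His6-tagged full-length human GSK-3β (aa 2-419) expressed in Sf21 cells, 200 ng/ml, phosphorylating plate-coated GST-Rb with 20 μM ATP in pH 7.2 HEPES buffer, 30 min at 37° C. Phospho-Rb (Ser-780) detected by antibody plus Eu-labelled secondary, time-resolved fluorescence; IC50 from curves.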

[2] = biological target: T2, CDK5/GST-p25 (Homo sapiens, UniProt Q00535); test: Inhibition of CDK5/GST-p25 kinase activity (ELISA with time-resolved fluorescence readout); assay type: biochemical
T2 construct: The final construct, encoding for full-length human CDK5; made in house; host or cells: Sf21 insect cells (baculovirus co-infection)
T2 sequence (Q00535 whole entry): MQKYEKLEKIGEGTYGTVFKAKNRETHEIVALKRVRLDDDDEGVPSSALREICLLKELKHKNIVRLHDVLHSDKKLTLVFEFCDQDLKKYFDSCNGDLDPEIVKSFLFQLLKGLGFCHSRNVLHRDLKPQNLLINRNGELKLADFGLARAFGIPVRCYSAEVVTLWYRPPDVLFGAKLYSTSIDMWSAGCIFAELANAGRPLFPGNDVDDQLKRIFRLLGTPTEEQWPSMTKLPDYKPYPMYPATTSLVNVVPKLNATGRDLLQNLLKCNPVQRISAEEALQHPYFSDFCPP
T2 sequence (Q15078 108-307 partner limits assumed): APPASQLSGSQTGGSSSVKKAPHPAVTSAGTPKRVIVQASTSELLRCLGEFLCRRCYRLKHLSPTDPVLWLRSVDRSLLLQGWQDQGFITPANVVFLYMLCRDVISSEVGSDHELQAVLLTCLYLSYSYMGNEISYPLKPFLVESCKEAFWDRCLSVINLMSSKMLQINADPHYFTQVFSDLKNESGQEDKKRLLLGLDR
Procedure, shortened: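 Sf21-coexpressed full-length human CDK5 with GST-p25 (p35 aa 108-307), glutathione-purified, at 2 ng/ml was reacted for 20 min at 37 °C on plate-coated GST-Rb(773-928). Buffer was 20 mM HEPES pH 7.2, 10 µM ATP, 10 mM MgCl2 and 2.5% DMSO. Phospho-Rb Ser-780 was detected by Eu-labelled antibody TRF, and IC50 curves were fitted.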

T1 sequence (P49841 2-419): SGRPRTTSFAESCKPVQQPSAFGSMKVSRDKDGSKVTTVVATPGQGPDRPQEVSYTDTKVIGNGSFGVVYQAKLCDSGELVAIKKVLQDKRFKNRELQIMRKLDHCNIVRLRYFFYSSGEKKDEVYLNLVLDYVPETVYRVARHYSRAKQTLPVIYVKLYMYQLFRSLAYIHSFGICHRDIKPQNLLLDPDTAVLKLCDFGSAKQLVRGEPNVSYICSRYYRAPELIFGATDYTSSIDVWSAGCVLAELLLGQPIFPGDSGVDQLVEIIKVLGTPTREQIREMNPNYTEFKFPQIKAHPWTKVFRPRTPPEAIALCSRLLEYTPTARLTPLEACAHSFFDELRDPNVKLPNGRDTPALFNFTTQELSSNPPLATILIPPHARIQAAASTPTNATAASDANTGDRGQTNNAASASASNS

| Compound | melting point | IC50 ([1]; class symbols) [µM] | IC50 ([2]; class symbols) [µM] | IC50 ([1]; numeric bounds) [µM] | inhibition at 10 µM [2] [%] | IC50 ([2]; numeric bounds) [µM] |
| --- | --- | --- | --- | --- | --- | --- |
| O=C1Nc2ccccc2C1c1nc(Cl)nc2nn(C3CCCC3)cc12 (stereo not drawn) [Example 152, 3-(6-Chloro-2-cyclopentyl-2H-pyrazolo[3,4-d]pyrimidin-4-yl)-1,3-dihydro-indol-2-one] | 270 to 273 °C | > 10 | > 10 | – | – | – |
| O=C1Nc2ccc(C(F)(F)F)cc2C1c1nc(Cl)nc2nn(C3CCCC3)cc12 (stereo not drawn) [Example 153, 3-(6-Chloro-2-cyclopentyl-2H-pyrazolo [3,4-d]pyrimidin-4-yl)-5-trifluoromethyl-1,3-dihydro-indol-2-one] | > 300 °C | – | > 10 | > 3 | – | – |
| CNc1nc(C2C(=O)Nc3ccccc32)c2cn(C3CCCC3)nc2n1 (stereo not drawn) [Example 154, 3-(2-cyclopentyl-6-methylamino-2H-pyrazolo [3,4-d]pyrimidin-4-yl)-1,3-dihydro-indol-2-one] | > 300 °C | 0.3 to 3 | – | – | 68 | – |
| O=C1Nc2ccccc2C1c1nc(NCCc2cccnc2)nc2nn(C3CCCC3)cc12 (stereo not drawn) [Example 155, 3-[2-cyclopentyl-6-(2-pyridin-3-yl-ethylamino)-2H-pyrazolo [3,4-d]pyrimidin-4-yl]-1,3-dihydro-indol-2-one] | 258 to 260 °C | 0.3 to 3 | – | – | – | > 1 |
| O=C1Nc2ccccc2C1c1nc(NCc2cccnc2)nc2nn(C3CCCC3)cc12 (stereo not drawn) [Example 156, 3-{2-cyclopentyl-6-[(pyridin-3-ylmethyl)-amino]-2H-pyrazolo [3,4-d]pyrimidin-4-yl}-1,3-dihydro-indol-2-one] | 216 to 218 °C | < 0.3 | < 0.3 | – | – | – |
| O=C1Nc2ccccc2C1c1nc(NCCCN2CCOCC2)nc2nn(C3CCCC3)cc12 (stereo not drawn) [Example 157, 3-[2-cyclopentyl-6-(3-morpholin-4-yl-propylamino)-2H-pyrazolo[3,4-d]pyrimidin-4-yl]-1,3-dihydro-indol-2-one] | 242 to 245 °C | 0.3 to 3 | – | – | – | > 3 |
| CC(=O)NCCNc1nc(C2C(=O)Nc3ccccc32)c2cn(C3CCCC3)nc2n1 (stereo not drawn) [Example 158, 3-(2-cyclopentyl-6-(2-acetylamino-ethylamino)-2H-pyrazolo[3,4-d]pyrimidin-4-yl)-1,3-dihydro-indol-2-one] | 238 to 240 °C | 0.3 to 3 | – | – | – | > 3 |
| CNc1nc(C2C(=O)Nc3ccc(C(F)(F)F)cc32)c2cn(C3CCCC3)nc2n1 (stereo not drawn) [Example 159, 3(-2-cyclopentyl-6-methylamino-2H-pyrazolo[3,4-d]pyrimidin-4-yl)-5-trifluoromethyl-1,3-dihydro-indol-2-one] | > 300 °C | > 10 | > 10 | – | – | – |
| O=C1Nc2ccc(C(F)(F)F)cc2C1c1nc(NCCc2cccnc2)nc2nn(C3CCCC3)cc12 (stereo not drawn) [Example 160, 3-[2-cyclopentyl-6-(2-pyridin-3-yl-ethylamino)-2H-pyrazolo[3,4-d]pyrimidin-4-yl]-5-trifluoromethyl-1,3-dihydro-indol-2-one] | 278 to 280 °C | < 0.3 | > 10 | – | – | – |
| O=C1Nc2ccc(C(F)(F)F)cc2C1c1nc(NCc2cccnc2)nc2nn(C3CCCC3)cc12 (stereo not drawn) [Example 161, 3-{2-cyclopentyl-6-[(pyridin-3-ylmethyl)-amino]-2H-pyrazolo [3,4-d]pyrimidin-4-yl}-5-trifluoromethyl-1,3-dihydro-indol-2-one] | > 300 °C | < 0.3 | – | – | 68 | – |
| O=C1Nc2ccc(C(F)(F)F)cc2C1c1nc(NCCCN2CCOCC2)nc2nn(C3CCCC3)cc12 (stereo not drawn) [Example 162, 3-[2-cyclopentyl-6-(3-morpholin-4-yl-propylamino)-2H-pyrazolo [3,4-d]pyrimidin-4-yl]-5-trifluoromethyl-1,3-dihydro-indol-2-one] | 288 to 291 °C | < 0.3 | – | – | – | > 1 |
| CC(=O)NCCNc1nc(C2C(=O)Nc3ccc(C(F)(F)F)cc32)c2cn(C3CCCC3)nc2n1 (stereo not drawn) [Example 163, 3-(2-cyclopentyl-6-(2-acetylamino-ethylamino)-2H-pyrazolo [3,4-d]pyrimidin-4-yl)-5-trifluoromethyl-1,3-dihydro-indol-2-one] | > 300 °C | < 0.3 | 0.3 to 3 | – | – | – |
| N#Cc1ccc2c(c1)C(c1nc(OCCc3cccnc3)nc3nn(C4CCCC4)cc13)C(=O)N2 (stereo not drawn) [Example 164, 3-[2-cyclopentyl-6-(2-pyridin-3-yl-ethoxy)-2H-pyrazolo [3,4-d]pyrimidin-4-yl]-2-oxo-2,3-dihydro-1H-indole-5-carbonitrile] | 302 to 304 °C | < 0.3 | > 10 | – | – | – |
| CC(C)CNc1nc(C2C(=O)Nc3ccc(C#N)cc32)c2cn(C3CCCC3)nc2n1 (stereo not drawn) [Example 165, 3-(2-cyclopentyl-6-isobutylamino-2H-pyrazolo [3,4-d]pyrimidin-4-yl)-2-oxo-2,3-dihydro-1H-indole-5-carbonitrile] | 297 to 298.5 °C | < 0.3 | < 0.3 | – | – | – |
| CCNc1nc(C2C(=O)Nc3ccc(C#N)cc32)c2cn(C3CCCC3)nc2n1 (stereo not drawn) [Example 166, 3-(2-cyclopentyl-6-ethylamino-2H-pyrazolo[3,4-d]pyrimidin-4-yl)-2-oxo-2,3-dihydro-1H-indole-5-carbonitrile] | 373 °C (dec.) | < 0.3 | – | – | 41 | – |
| COCCN(CCOC)c1nc(C2C(=O)Nc3ccc(C#N)cc32)c2cn(C3CCCC3)nc2n1 (stereo not drawn) [Example 167, 3-{6-[bis-(2-methoxyethyl)amino]-2-cyclopentyl-2H-pyrazolo[3,4-d]pyrimidin-4-yl}-2-oxo-2,3-dihydro-1H-indole-5-carbonitrile] | 248.5 to 249 °C | < 0.3 | – | – | – | > 3 |
| N#Cc1ccc2c(c1)C(c1nc(N(CCO)CCO)nc3nn(C4CCCC4)cc13)C(=O)N2 (stereo not drawn) [Example 168, 3-{6-[bis(2-hydroxyethyl)amino]-2-cyclopentyl-2H-pyrazolo[3,4-d]pyrimidin-4-yl}-2-oxo-2,3-dihydro-1H-indole-5-carbonitrile] | 243 to 243.5 °C | < 0.3 | < 0.3 | – | – | – |
| CCCn1cc2c(C3C(=O)Nc4ccc(C#N)cc43)nc(NCCc3cccnc3)nc2n1 (stereo not drawn) [Example 185, 2-Oxo-3-[2-propyl-6-(2-pyridin-3-yl-ethylamino)-2H-pyrazolo [3,4-d]pyrimidin-4-yl]-2,3-dihydro-1H-indole-5-carbonitrile] | 302 to 305 °C | < 0.3 | < 0.3 | – | – | – |
| CCCn1cc2c(C3C(=O)Nc4ccc(C#N)cc43)nc(NCc3ccncc3)nc2n1 (stereo not drawn) [Example 186, 2-Oxo-3-{2-propyl-6-[(pyridine-4-ylmethyl)-amino]-2H-pyrazolo [3,4-d]pyrimidin-4-yl}-2,3-dihydro-1H-indole-5-carbonitrile] | 299 to 302 °C | < 0.3 | < 0.3 | – | – | – |
| CCCn1cc2c(C3C(=O)Nc4ccc(C#N)cc43)nc(NCCc3ccccn3)nc2n1 (stereo not drawn) [Example 187, 2-Oxo-3-[2-propyl-6-(2-pyridin-2-yl-ethylamino)-2H-pyrazolo[3,4-d]pyrimidin-4-yl]-2,3-dihydro-1H-indole-5-carbonitrile] | > 300 °C | < 0.3 | < 0.3 | – | – | – |
| CCCn1cc2c(C3C(=O)Nc4ccc(Br)cc43)nc(Cl)nc2n1 (stereo not drawn) [Example 188, 5-Bromo-3-(6-chloro-2-propyl-2H-pyrazolo[3,4-d]pyrimidin-4-yl)-1,3-dihydro-indol-2-one] | > 300 °C | – | > 10 | > 3 | – | – |
| CCCn1cc2c(C3C(=O)Nc4ccc(Br)cc43)nc(NCCc3cccnc3)nc2n1 (stereo not drawn) [Example 189, 5-Bromo-3-[2-propyl-6-(2-pyridin-3-yl-ethylamino)-2H-pyrazolo [3,4-d]pyrimidin-4-yl]-1,3-dihydro-indol-2-one] | 294 to 297 °C | < 0.3 | < 0.3 | – | – | – |
| CCCn1cc2c(C3C(=O)Nc4ccc(Br)cc43)nc(NCc3ccncc3)nc2n1 (stereo not drawn) [Example 190, 5-Bromo-3-{2-propyl-6-[(pyridine-4-ylmethyl)-amino]-2H-pyrazolo[3,4-d]pyrimidin-4-yl}-1,3-dihydro-indol-2-one] | > 300 °C | < 0.3 | < 0.3 | – | – | – |
| CCCn1cc2c(C3C(=O)Nc4ccc(Br)cc43)nc(NCCc3ccccn3)nc2n1 (stereo not drawn) [Example 191, 5-Bromo-3-[2-propyl-6-(2-pyridin-2-yl-ethylamino)-2H-pyrazolo [3,4-d]pyrimidin-4-yl]-1,3-dihydro-indol-2-one] | 283 to 291 °C | < 0.3 | < 0.3 | – | – | – |
| CCCn1cc2c(C3C(=O)Nc4ccc(Br)cc43)nc(NC[C@H](C)O)nc2n1 (stereo partly drawn) [Example 194, 5-Bromo-3-[6-((S)-2-hydroxy-propylamino)-2-propyl-2H-pyrazolo[3,4-d]pyrimidin-4-yl]-1,3-dihydro-indol-2-one] | 322 to 326 °C | < 0.3 | < 0.3 | – | – | – |
| CCCn1cc2c(C3C(=O)Nc4ccc(Br)cc43)nc(NC[C@@H](C)O)nc2n1 (stereo partly drawn) [Example 195, 5-Bromo-3-[6-((R)-2-hydroxy-propylamino)-2-propyl-2H-pyrazolo [3,4-d]pyrimidin-4-yl]-1,3-dihydro-indol-2-one] | 310 °C (dec.) | < 0.3 | < 0.3 | – | – | – |
